Reference: patent US20130203718A1 (priority 2010, published 2013)
“Also recorded” adds a separate entry of the source.

Key:
hPRB = target: T1, hPRB (Homo sapiens, UniProt P06401); test: PR transactivation assay (GRE2-Luc) in HEK293T cells transiently expressing hPRB; type: cell-based; design: expressed in transfected cells; host or cells: HEK 293T
T1 sequence (P06401 1-933): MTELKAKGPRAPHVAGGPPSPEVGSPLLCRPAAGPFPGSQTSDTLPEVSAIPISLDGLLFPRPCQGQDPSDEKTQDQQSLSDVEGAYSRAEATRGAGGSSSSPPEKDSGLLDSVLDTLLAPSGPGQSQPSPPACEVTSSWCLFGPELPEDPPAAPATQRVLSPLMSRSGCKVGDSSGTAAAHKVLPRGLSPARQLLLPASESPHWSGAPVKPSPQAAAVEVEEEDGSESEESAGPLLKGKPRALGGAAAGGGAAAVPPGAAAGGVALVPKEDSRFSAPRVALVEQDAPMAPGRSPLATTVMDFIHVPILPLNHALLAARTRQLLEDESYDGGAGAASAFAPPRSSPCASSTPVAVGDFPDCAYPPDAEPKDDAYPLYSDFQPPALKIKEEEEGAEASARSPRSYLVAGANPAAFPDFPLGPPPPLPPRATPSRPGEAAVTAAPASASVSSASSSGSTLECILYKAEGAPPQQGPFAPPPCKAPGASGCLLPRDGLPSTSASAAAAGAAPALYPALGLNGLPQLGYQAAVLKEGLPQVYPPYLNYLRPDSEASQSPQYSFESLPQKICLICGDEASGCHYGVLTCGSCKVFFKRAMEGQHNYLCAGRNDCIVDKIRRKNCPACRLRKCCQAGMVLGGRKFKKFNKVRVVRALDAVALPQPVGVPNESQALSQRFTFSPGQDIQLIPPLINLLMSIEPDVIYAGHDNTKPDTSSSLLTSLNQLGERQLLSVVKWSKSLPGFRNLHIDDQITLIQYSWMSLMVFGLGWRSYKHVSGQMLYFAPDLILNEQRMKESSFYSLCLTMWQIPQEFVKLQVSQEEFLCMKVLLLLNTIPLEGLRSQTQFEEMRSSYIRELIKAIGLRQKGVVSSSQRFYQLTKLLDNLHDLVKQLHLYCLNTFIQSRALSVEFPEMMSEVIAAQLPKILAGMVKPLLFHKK
Description: PR Transactivation Assays in HEK 293T.
HEK 293T cells were routinely cultured in a high-glucose DMEM medium (Invitrogene, Cergy Pontoise, France), 20 mM HEPES, 2 mM glutamine, 1× non essential amino acids, 100 U/mL penicillin and 100 μg/mL streptomycin supplemented with 10% foetal calf serum (FCS) in a humidified atmosphere at 37° C. and with 5% CO2. One day before transfection, the cells were seeded at 3×10^6 cells/[…] diameter culture Petri dish and cultured overnight in the same medium. Six hours before transfection, the FCS supplemented medium was replaced by the same medium supplemented with 10% dextran-charcoal treated FCS. Transfections were carried out using the calcium phosphate precipitation method. The calcium phosphate precipitate was prepared with 0.5 μg pchPRB (Petit-Topin, et al Mol Pharmacol, 2009, 75, 1317), 7 μg reporter vector (GRE2-Luc from A. Biola-Vidamment and M. Pallardy) and 1 μg of pcβgal for an internal transfection control, in 1 mL 140 mM NaCl, 0.75 mM Na2HPO4, 25 mM HEPES, 125 mM CaCl2 pH 7.05 and added to the cells 30 minutes later. After 16 h incubation, the transfected cells were washed with PBS containing 2.5 mM EDTA, trypsinized and pooled. The transfected cells were replated in 24-well plates (100.000 transfected cells/well). […] Cells were lysed in 300 μl PBS 1×, 25 mM glycylglycine, 4 mM EDTA, 15% glycerol, 1% triton X-100, 15 mM MgSO4, pH 7.8 supplemented with 2 mM β-mercaptoethanol. The luciferase activities were quantified by using a Mithras LB940 reader microplates (Berthold).
The APRn “agonist efficacy” was determined from the following formula:
Agonist efficacy=[luciferase activity]1/[luciferase activity]2×100
The APRn “antagonist efficacy” was calculated from the following formula:
Antagonist efficacy=100−[luciferase activity]1/[luciferase activity]2×100
The results are the mean±SEM of three to five independent experiments.
All the synthesized APRn were classified in 4 series depending on the nature of their C3 substituent (R1/R′1 groups). The first one (series 1) includes APRn with no C3 substituent (R1═R′1═H) whereas series 2, 3 and 4 are related to APRn bearing a methoxyl (R1═OMe), a hydroxyl (R1═OH) and a fluorine atom (R1═F), respectively. The agonist/antagonist activities of APRn were determined either in human HEK293T cells transiently expressing hPRB or in human MDA-MB-231 iPRAB cells conditionally expressing hPRB, by using a luciferase reporter gene placed under the control of a glucocorticoid response element (GRE2-Luc). The APRn “agonist efficacy” was determined from the luciferase activity measured in the presence of APRn (1 μM). […] The “agonist efficacy” and “antagonist efficacy” are expressed as defined in the biological protocols section.

[1] = series 2-4, stated for both HEK293T and MDA-MB-231 iPRAB cells, APRn 1 μM, FIGS. 3-8
[2] = series 1 (no C3 substituent), HEK293T, APRn 1 μM, FIG. 1

Row | SMILES | melting point [°C] | hPRB agonist/antagonist character (in words) (hPRB; [1]) | hPRB agonist/antagonist character (in words) (hPRB; [2]) | other results
1 | CC1CCC2C3CCC4=CC(=O)CC[C@]4(C)C3CC[C@]2(C)[C@H]1F (stereo partly drawn) | 170 to 171 |  |  | 
2 | CO[C@H]1CC[C@@]2(C)C(=CC[C@H]3[C@@H]4CC[C@H](C(C)O)[C@@]4(C)CC[C@@H]32)C1 (mixture of isomers) [APR-27, 3β-Methoxypregn-5-en-20-ol] | 124 to 125 | antagonist character without any agonist activity |  | 
3 | CO[C@H]1CC[C@@]2(C)[C@@H](CC[C@@H]3[C@@H]2CC[C@]2(C)[C@@H](C(C)O)CC[C@@H]32)C1 (mixture of isomers) [APR-28, 3β-Methoxy-5α-pregnan-20-ol] |  | antagonist character without any agonist activity |  | 
4 | CC(O)[C@H]1CC[C@H]2[C@@H]3CC[C@H]4C[C@@H](O)CC[C@]4(C)[C@H]3CC[C@]12C (mixture of isomers) [APR-29, 5α-Pregnan-3β,20-diol] |  | able to activate hPRB, but their agonist efficacies are low |  | 
5 | CC1CCC2C3CCC4=CC(O)CC[C@]4(C)C3CC[C@]2(C)[C@H]1F (single isomer, unassigned) [APR-07, 17aβ-Fluoro-17α-methyl-D-homo-pregn-4-en-3-ol] | 125 to 126 | most potent hPRB antagonist in this series |  | 
6 | CC(=O)[C@H]1CC[C@H]2[C@@H]3CC[C@H]4CCCC[C@]4(C)[C@H]3CC[C@]12C [APR-01, 5α-pregnan-20-one] |  |  | partial hPRB agonist | antagonist efficacy (hPRB; HEK293T, APRn 1 μM plus progesterone 1 nM, FIG. 1): 48%; efficacy to activate hPRB (agonist efficacy) (hPRB; HEK293T, APRn 1 μM, relative to 1 nM progesterone, FIG. 1): 30%
7 | CO[C@H]1CC[C@@]2(C)C(=CC[C@H]3[C@@H]4CC[C@H](C(C)=O)[C@@]4(C)CC[C@@H]32)C1 [APR-02, 3β-Methoxypregn-5-en-20-one] |  | most potent molecules |  | hPRB agonist/antagonist character (in words) (hPRB; series 2-4, stated for both HEK293T and MDA-MB-231 iPRAB cells, APRn 1 μM, FIGS. 3-8, listed as APR2): antagonist character without any agonist activity
8 | CC1CCC2C3CC=C4CC5(CC[C@]4(C)C3CC[C@]2(C)[C@H]1F)OCCO5 (stereo partly drawn) [APR-05, 17aβ-Fluoro-17α-methyl-D-homo-3-ethylenedioxo-5-androstene] | 146 to 147 |  |  | 
9 | CC1CCC2C3CC=C4C=CCC[C@]4(C)C3CC[C@]2(C)[C@H]1F (stereo partly drawn) [APR-08, 17aβ-Fluoro-17α-methyl-D-homo-pregn-3,5-diene] |  |  | partial antagonist | hPRB agonist/antagonist character (in words) (hPRB; series 1 (no C3 substituent), HEK293T, APRn 1 μM, FIG. 1, listed as APR-8): full antagonists
10 | C[C@H](O)[C@H]1CCC2C3CCC4CCCC[C@]4(C)C3CC[C@@]21C (stereo partly drawn) [APR-10, 20-Hydroxypregnane] |  |  | full antagonists | 
11 | C[C@H](O)[C@H]1CCC2C3CC=C4C=CCC[C@]4(C)C3CC[C@@]21C (stereo partly drawn) [APR-11, pregn-3,5-dien-20-ol] | 103 to 104 |  | full antagonists | 
12 | CC(=O)[C@H]1CC[C@H]2[C@@H]3CC=C4C=CCC[C@]4(C)[C@H]3CC[C@]12C [APR-12, Pregn-3,5-dien-20-one] | 135 to 136 |  | partial antagonist | 
13 | CC(=O)O[C@@H](C)[C@H]1CC[C@H]2[C@@H]3CC[C@H]4CCCC[C@]4(C)[C@H]3CC[C@]12C [APR-13, 20-Acetoxy-5α-pregnane] |  |  | full antagonists | 
14 | C[C@]12CCCC[C@@H]1CC[C@@H]1[C@@H]2CC[C@]2(C)[C@@H](O)CC[C@@H]12 [APR-14, 5α-Androstan-17β-ol] |  |  | full antagonists | 
15 | CC(=O)[C@H]1CC[C@H]2[C@@H]3CC=C4C[C@@H](O)CC[C@]4(C)[C@H]3CC[C@]12C [APR-15, 3β-Hydroxypregn-5-en-20-one] |  | able to activate hPRB, but their agonist efficacies are low |  | 
16 | CC(=O)[C@H]1CC[C@H]2[C@@H]3CC[C@H]4C[C@@H](O)CC[C@]4(C)[C@H]3CC[C@]12C [APR-20, 3β-Hydroxy-5α-pregnan-20-one] |  | able to activate hPRB, but their agonist efficacies are low |  | 
17 | C#CC(C)(O)[C@H]1CC[C@H]2[C@@H]3CC=C4C[C@@H](F)CC[C@]4(C)[C@H]3CC[C@]12C (stereo partly drawn) [APR-21, 20-Ethynyl-3β-fluoropregn-5-en-20-ol] | 213 to 214 |  |  | 
18 | CO[C@H]1CC[C@@]2(C)[C@@H](CC[C@@H]3[C@@H]2CC[C@]2(C)[C@@H](C(C)=O)CC[C@@H]32)C1 [APR-22, 3β-Methoxy-5α-pregnan-20-one] | 125 to 126 | antagonist character without any agonist activity; also recorded: most potent molecules |  | 
19 | C[C@]12CCCC[C@@H]1CC[C@@H]1[C@@H]2CC[C@]2(C)C(=O)CC[C@@H]12 [APR-23, 5α-Androstan-17-one] | 120 to 121 |  | full antagonists | 
20 | C[C@H](O)[C@H]1CC[C@H]2[C@@H]3CC=C4C[C@@H](F)CC[C@]4(C)[C@H]3CC[C@]12C [APR-24, 3β-Fluoropregn-5-en-20-ol] |  | efficient hPRB antagonists |  | 
21 | C#CC(C)(O)[C@H]1CC[C@H]2[C@@H]3CC[C@H]4C[C@@H](F)CC[C@]4(C)[C@H]3CC[C@]12C (stereo partly drawn) [APR-26, 20-Ethynyl-3β-fluoro-5α-pregnan-20-ol] | 230 to 231 |  |  | 
22 | C#CC(C)(O)[C@H]1CC[C@H]2[C@@H]3CC[C@H]4C[C@@H](OC)CC[C@]4(C)[C@H]3CC[C@]12C (stereo partly drawn) [APR-30, 20-Ethynyl-3β-methoxy-5α-pregnan-20-ol] | 168 to 169 |  |  | 
23 | C[C@]12CC[C@H]3[C@@H](CC=C4C[C@@H](F)CC[C@@]43C)[C@@H]1CC[C@@H]2O [APR-41, 3β-Fluoro-androst-5-en-17β-ol] | 165 to 166 |  |  | 
24 | C[C@]12CCC3C(CC=C4C[C@@H](O)CC[C@@H]43)C1CC[C@@H]2O (stereo partly drawn) [APR-48, 19-nor-Androst-5-en-3β,17β-diol] |  | Except for APR48, the molecules of this series behave as antagonists |  | 
25 | C[C@]12CCC3C(CC[C@H]4CCCC[C@H]34)C1CC[C@@H]2O (stereo partly drawn) [APR-52, 19-nor-5-Androstan-17β-ol] |  |  | full antagonists | 
26 | C#C[C@]1(O)CCC2C3CC[C@H]4CCCC[C@@H]4C3CC[C@@]21C (stereo partly drawn) [APR-56, 17α-Ethynyl-19-nor-5-androstan-17β-ol] |  |  | full antagonists | 
